The nature of one data set: physchem. The note with it: pH 7.4.
Data set [1] concerns the target T1, XIAP (Homo sapiens, UniProt P98170). The data set is described as follows: Immunoblotting (western blot) quantification of XIAP levels in MM.1S cells. The note with it: 16 h.
Data set [2] has as its system IAPs (cIAP1, cIAP2, XIAP). The data set is described as follows: Immunoblotting of IAPs in MM.1S cells, overall degradation profile, time course and washout. The class given is cell-based. The note with it: 16 h, western blot, concentration (10 nM to 1 μM). Here is the method:
Next, we examined the persistence of IAP degradation in MM.1S cells after a single exposure to 1 μM of 9 and subsequent removal of the compound. […] The reliance on CRL2^VHL was assessed with a neddylation inhibitor MLN4924, which blocks the activity of CRLs (Figure S13A).

In the next data set the target is cIAP2 (Homo sapiens, UniProt Q13489). The data set is described as follows: Immunoblotting (western blot) quantification of cIAP2 levels in MM.1S cells. The following applies: 16 h.
Chain of cIAP2 (Q13489 whole entry): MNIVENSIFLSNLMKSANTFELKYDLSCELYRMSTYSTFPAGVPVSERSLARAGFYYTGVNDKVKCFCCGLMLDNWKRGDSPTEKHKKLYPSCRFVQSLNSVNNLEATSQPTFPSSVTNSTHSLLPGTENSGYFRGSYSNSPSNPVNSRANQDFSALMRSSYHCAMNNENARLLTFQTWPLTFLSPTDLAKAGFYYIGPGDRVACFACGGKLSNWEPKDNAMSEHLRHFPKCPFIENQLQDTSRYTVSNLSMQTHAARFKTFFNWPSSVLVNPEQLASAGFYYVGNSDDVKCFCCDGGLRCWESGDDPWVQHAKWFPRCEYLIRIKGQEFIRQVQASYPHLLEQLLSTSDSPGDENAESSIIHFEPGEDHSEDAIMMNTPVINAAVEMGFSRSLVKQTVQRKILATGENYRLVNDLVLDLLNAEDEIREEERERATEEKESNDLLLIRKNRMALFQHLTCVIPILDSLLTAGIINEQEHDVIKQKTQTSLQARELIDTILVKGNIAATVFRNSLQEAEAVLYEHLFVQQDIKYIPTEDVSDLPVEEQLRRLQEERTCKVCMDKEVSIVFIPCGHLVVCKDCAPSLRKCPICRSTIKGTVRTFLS
Data set [3] deals with T2, cIAP1 (Homo sapiens, UniProt Q13490). The data set is described as follows: Immunoblotting (western blot) quantification of cIAP1 levels in MM.1S cells. The note with it: 16 h.
T2 sequence (Q13490 whole entry): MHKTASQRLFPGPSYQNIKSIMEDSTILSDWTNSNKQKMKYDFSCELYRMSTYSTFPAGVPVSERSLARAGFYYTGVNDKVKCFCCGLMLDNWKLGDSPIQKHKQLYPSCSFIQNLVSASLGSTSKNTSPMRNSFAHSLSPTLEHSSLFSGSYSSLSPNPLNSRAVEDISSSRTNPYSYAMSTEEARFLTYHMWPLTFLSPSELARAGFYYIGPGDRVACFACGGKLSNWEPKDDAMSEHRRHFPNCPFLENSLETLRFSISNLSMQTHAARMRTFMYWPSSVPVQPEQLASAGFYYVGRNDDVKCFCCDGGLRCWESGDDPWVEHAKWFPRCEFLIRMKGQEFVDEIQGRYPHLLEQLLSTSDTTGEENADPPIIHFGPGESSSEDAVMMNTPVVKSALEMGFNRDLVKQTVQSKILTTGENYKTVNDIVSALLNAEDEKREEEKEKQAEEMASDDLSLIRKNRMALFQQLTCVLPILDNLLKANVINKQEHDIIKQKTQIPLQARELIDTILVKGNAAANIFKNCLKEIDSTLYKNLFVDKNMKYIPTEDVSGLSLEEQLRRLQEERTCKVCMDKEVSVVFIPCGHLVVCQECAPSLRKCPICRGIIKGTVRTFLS
Method: (§3) To evaluate the capability of our panel of hetero-PROTACs for E3 ligase degradation, VHL19, VHL30, CRBN, cIAP1, cIAP2, and XIAP levels were quantified by western blot analyses. […] SDS-PAGE was performed, and proteins were then transferred onto PVDF membranes. Blotted membranes were blocked with 5% milk in Tris-buffered saline/Tween20 (TBST). Primary antibodies were diluted in 5% BSA in TBST, and incubations were performed overnight at 4 °C. Secondary HRP-conjugated antibodies diluted in 5% milk were incubated for 1 h at room temperature. Detection of proteins on PVDF was carried out using the WesternBright ECL HRP substrate or the WesternBright Sirius HRP substrate (Advansta, San Jose, USA) and imaged with LAS 4000× (Fujifilm). Membranes were subjected to 10 min incubation with Restore Western Blot Stripping Buffer (Thermo Fisher Scientific, Waltham, USA), followed by TBST washes. After brief re-activation with methanol, the membranes were blocked, and further probing of proteins was carried out.
(§4) Quantification of blots was performed using ImageJ software (National Institutes of Health).
The target in the next data set is VHL19 (Homo sapiens, UniProt P40337). The data set is described as follows: Immunoblotting (western blot) quantification of VHL19 levels in MM.1S cells. The note with it: 16 h, western blot.
Chain of VHL19 (P40337 54-213): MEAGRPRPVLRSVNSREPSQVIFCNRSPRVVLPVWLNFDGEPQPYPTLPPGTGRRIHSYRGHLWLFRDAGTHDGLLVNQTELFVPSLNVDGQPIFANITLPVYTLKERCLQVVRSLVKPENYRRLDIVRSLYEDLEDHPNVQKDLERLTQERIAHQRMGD
The target of data set [4] is T2, cIAP1. The experiment in a line: Immunoblotting of cIAP1 in HG3 wild-type and HG3 VHL-knockout cells. The class given is cell-based. The arrangement: endogenous in cells; host or cells: MM.1S. The following applies: 1 μM, 16 h. Here is the method:
(§1) Next, cellular activities of hetero-PROTACs 2, 4, and 6 were evaluated in chronic lymphocytic leukemia cells (HG3), for which a VHL-knockout cell line was created (Figure 5). […] Thus, VHL knockout confirmed the involvement of E3 ubiquitin ligase CRL2^VHL in the induced degradation of XIAP (and, at least in part, cIAP1) by these IAP-VHL heterobifunctional PROTACs. This provides additional evidence that the degradation of IAPs relies on the formation of a hetero–ternary complex consisting of both ligases and the degraders.
(§2) For generation of lentiviral vectors, HEK293T cells were transfected with constructs along with the packaging and envelope vectors. Viral supernatants were harvested 48 h after transfection and were used to transduce cell lines. MM.1S and HG3 cells were transduced with virus containing pLKO5d.SSF.SpCas9.P2a.BSD, and cells were selected with blasticidin. Selected cells were then transduced with respective sgRNA constructs targeting VHL, cIAP1, cIAP2, XIAP, and negative control luciferase, which were cloned into pLKO5.hU6.sgRNA.dTom. Transduction success was confirmed through FACS analysis 48 h post-transduction with a minimum efficiency of 95% tomato fluorescence.

In another data set the target is VHL30 (Homo sapiens, UniProt P40337). The data set is described as follows: Immunoblotting (western blot) quantification of VHL30 levels in MM.1S cells.
Chain of VHL30 (P40337 whole entry): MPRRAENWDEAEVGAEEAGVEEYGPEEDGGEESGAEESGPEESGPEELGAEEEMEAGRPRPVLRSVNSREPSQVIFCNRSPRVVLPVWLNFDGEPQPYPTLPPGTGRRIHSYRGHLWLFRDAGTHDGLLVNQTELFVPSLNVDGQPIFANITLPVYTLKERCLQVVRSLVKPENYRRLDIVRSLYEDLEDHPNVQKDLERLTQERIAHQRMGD
Data set [5] concerns the target T1, XIAP. The data set is described as follows: Immunoblotting of XIAP in HG3 wild-type and HG3 VHL-knockout cells. Type of data set: cell-based. More on the design: endogenous in cells; host or cells: MM.1S. The note with it: 1 μM, 16 h. As for the experimental part:
as §1, §2

Setting [6] is: MM.1S cells, western blot, 0.1 or 1 μM.

The structures appear in SMILES notation. *1 amine or outer side, *2 acyl side, *3 side chain or, on linkers, in order; H or OH if unused. Where a SMILES comes first, the peptide text is derived from it. Bridges are numbered along the chain shown (N, C = ends). Roman numbers before positions name the chains, in order. [ ]: non-standard residue; d: D form. Hexamethylenediamine = C(CCCN[*:2])CCN[*:1]; dDip = N[C@@H](C(=O)O)C(c1ccccc1)c1ccccc1; Chg = N[C@H](C(=O)O)C1CCCCC1; dNMeA = CN[C@H](C)C(=O)O

This is an account of results in paper PMC10108347, “Heterobifunctional Ligase Recruiters Enable pan-Degradation of Inhibitor of Apoptosis Proteins” (Journal of Medicinal Chemistry, 2023).

T1 sequence (P98170 whole entry): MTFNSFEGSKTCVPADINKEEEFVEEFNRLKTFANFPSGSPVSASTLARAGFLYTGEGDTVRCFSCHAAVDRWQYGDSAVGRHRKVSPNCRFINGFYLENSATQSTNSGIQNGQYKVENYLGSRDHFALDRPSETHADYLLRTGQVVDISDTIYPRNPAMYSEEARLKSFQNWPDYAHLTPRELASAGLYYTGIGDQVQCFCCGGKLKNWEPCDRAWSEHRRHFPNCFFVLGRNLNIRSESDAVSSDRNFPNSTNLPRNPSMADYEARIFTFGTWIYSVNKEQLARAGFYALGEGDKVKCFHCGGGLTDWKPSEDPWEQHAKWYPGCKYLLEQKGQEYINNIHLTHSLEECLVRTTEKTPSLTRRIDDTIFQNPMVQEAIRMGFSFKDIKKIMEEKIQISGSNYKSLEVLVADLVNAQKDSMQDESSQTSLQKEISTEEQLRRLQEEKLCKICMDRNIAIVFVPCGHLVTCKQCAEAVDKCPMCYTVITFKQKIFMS
Method for VHL19: as §3, §4
Method for VHL30: as §3, §4
Method for physchem: The system was calibrated by plotting the retention times of six different drugs (atenolol, metoprolol, labetalol, diltiazem, triphenylene, and permethrin) versus their literature-known log D7.4 in a calibration line (R^2 = 0.99). Subsequently, the mean retention times of the analytes were taken to calculate their log D7.4 values with the aid of the calibration line. At least two independent measurements of each analyte were performed.

In “physchem”, `CN[C@H](C)C(=O)N[C@H](C(=O)N1CCC[C@@H]1C(=O)N[C@@H](C(=O)NCCCCCCNC(=O)[C@H](NC(=O)[C@H]1CCCN1C(=O)[C@@H](NC(=O)[C@@H](C)NC)C1CCCCC1)C(c1ccccc1)c1ccccc1)C(c1ccccc1)c1ccccc1)C1CCCCC1` [BV6, reference compound] (I: H-[dNMeA][Chg][dP][dDip] / II: H-[dNMeA][Chg][dP][dDip]; linker I:C-II:C via Hexamethylenediamine) came in with a chromatographic logD of 3.4. In addition, on XIAP [1] (setting [6]), the “XIAP degradation (in words)” value is recorded as “failed to degrade XIAP”. Moreover, in [2], the “IAP degradation profile (in words)” value is reported as “potent cIAP autodegradation”. Moreover, the “cIAP2 degradation (in words)” value on cIAP2 (setting [6]) was “substantial degradation”. Besides, the “cIAP1 degradation (in words)” value at cIAP1 [3] (setting [6]) is recorded as “substantial degradation”.
Turning to `CN[C@@H](C)C(=O)N[C@H](C(=O)N1C[C@@H](Oc2cccc(OCCCCCCCC(=O)N[C@H](C(=O)N3C[C@H](O)C[C@H]3C(=O)NCc3ccc(-c4scnc4C)cc3)C(C)(C)C)c2)C[C@H]1C(=O)N[C@@H]1CCCc2ccccc21)C1CCCCC1` [PROTAC 2, (2S,4S)-1-((S)-2-Cyclohexyl-2-((S)-2-(methylamino)propanamido)acetyl)-4-(3-((8-(((S)-1-((2S,4R)-4-hydroxy-2-((4-(4-methylthiazol-5-yl)benzyl)carbamoyl)pyrrolidin-1-yl)-3,3-dimethyl-1-oxobutan-2-yl)amino)-8-oxooctyl)oxy)phenoxy)-N-((R)-1,2,3,4-tetrahydronaphthalen-1-yl)pyrrolidine-2-carboxamide], the “VHL19 degradation (in words)” value on VHL19 is reported as “slight hook effect for VHL19 degradation”. The “cIAP1 degradation in VHL+/+ and VHL–/– HG3 cells (in words)” value on cIAP1 [4] is “cIAP1 autodegradation was observed”. The remaining activity at 0.1 µM is 5% on XIAP [1] (MM1.S, read-out: %remaining protein XIAP, MM.1S cells, 16 h treatment at 0.1 μM, normalized to loading control and DMSO); 28% on VHL30 (MM1.S, 16 h, read-out: %remaining protein VHL30, MM.1S cells, 16 h treatment at 0.1 μM, normalized to loading control and DMSO); 23% at cIAP2 (MM1.S, read-out: %remaining protein cIAP2, MM.1S cells, 16 h treatment at 0.1 μM, normalized to loading control and DMSO); 4% on cIAP1 [3] (MM1.S, read-out: %remaining protein cIAP1, MM.1S cells, 16 h treatment at 0.1 μM, normalized to loading control and DMSO). In addition, the “VHL30 degradation (in words)” value on VHL30 (MM.1S cells, western blot) was “strong and dose-dependent VHL30 degradation”. Further, the “XIAP degradation in VHL+/+ and VHL–/– HG3 cells (in words)” value on XIAP [5] is recorded as “occurred only in HG3 wild-type cells”.
